Results on 24 compounds are retold here after patent publication US10889555B2, “Sulfonamide compound or salt thereof” (Taiho Pharmaceutical Co., Ltd., priority 2016, dated 2021).

For this test, the system named is HCC 1806 cells. Description: Cell proliferation inhibitory effect on human breast cancer cell line (crystal violet, 72 hours). The following applies: Homo sapiens, HCC1806, 72 h, read-out: Cell growth suppression IC50. It is filed as cell-based. The procedure, abridged: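 Cells were seeded at 2,000/well in RPMI-1640 with 10% FBS and grown 1 day, then exposed to compound for 72 h at 37° C, 5% CO2. After glutaraldehyde fixation and 0.05% crystal violet staining, extracted dye was read at 540 nm. IC50 (μM) came from growth inhibition relative to untreated and cell-free wells.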
For `Cc1ccc(F)c([C@@H](C)[C@H](NS(=O)(=O)c2ccc(Cl)c(C(=O)N(C)C)n2)c2n[nH]c(=O)o2)c1C` [Example 253, 3-chloro-6-(N-((1S,2R)-2-(6-fluoro-2,3-dimethylphenyl)-1-(5-oxo-4,5-dihydro-1,3,4-oxadiazol-2-yl)propyl)sulfamoyl)-N,N-dimethylpicolinamide], the half-inhibitory concentration (IC50) is 230 nM. Under `Cc1c(Cl)ccc(F)c1[C@@H](C)[C@H](NS(=O)(=O)c1ncc(Br)cc1C(N)=O)c1n[nH]c(=O)o1` [Example 254, 5-bromo-2-(N-((1S,2R)-2-(3-chloro-6-fluoro-2-methylphenyl)-1-(5-oxo-4,5-dihydro-1,3,4-oxadiazol-2-yl)propyl)sulfamoyl)nicotinamide] stands 250 nM; under `Cc1ccc(F)c([C@@H](C)[C@H](NS(=O)(=O)c2cc(F)c(Cl)cc2C(N)=O)c2n[nH]c(=O)o2)c1C` [Example 255, 5-chloro-4-fluoro-2-(N-((1S,2R)-2-(6-fluoro-2,3-dimethylphenyl)-1-(5-oxo-4,5-dihydro-1,3,4-oxadiazol-2-yl)propyl)sulfamoyl)benzamide], 480 nM. In the case of `Cc1cc(S(=O)(=O)N[C@H](c2n[nH]c(=O)o2)[C@H](C)c2c(F)ccc(C)c2C)c(C(N)=O)cc1Cl` [Example 257, 5-chloro-2-(N-((1S,2R)-2-(6-fluoro-2,3-dimethylphenyl)-1-(5-oxo-4,5-dihydro-1,3,4-oxadiazol-2-yl)propyl)sulfamoyl)-4-methylbenzamide] it was 200 nM. Turning to `Cc1ccc(F)c([C@@H](C)[C@H](NS(=O)(=O)c2c(F)cc(Cl)cc2C(N)=O)c2n[nH]c(=O)o2)c1C` [Example 258, 5-chloro-3-fluoro-2-(N-((1S,2R)-2-(6-fluoro-2,3-dimethylphenyl)-1-(5-oxo-4,5-dihydro-1,3,4-oxadiazol-2-yl)propyl)sulfamoyl)benzamide], the IC50 was determined as 580 nM. Consider `COc1cc(S(=O)(=O)N[C@H](c2n[nH]c(=O)o2)[C@H](C)c2c(F)ccc(C)c2C)c(C(N)=O)cc1Cl` [Example 259, 5-chloro-2-(N-((1S,2R)-2-(6-fluoro-2,3-dimethylphenyl)-1-(5-oxo-4,5-dihydro-1,3,4-oxadiazol-2-yl)propyl)sulfamoyl)-4-methoxybenzamide], for which the IC50 is 350 nM. Under `Cc1ccc(F)c([C@@H](C)[C@H](NS(=O)(=O)c2cc3c(cc2C(N)=O)OCCO3)c2n[nH]c(=O)o2)c1C` [Example 261, 7-(N-((1S,2R)-2-(6-fluoro-2,3-dimethylphenyl)-1-(5-oxo-4,5-dihydro-1,3,4-oxadiazol-2-yl)propyl)sulfamoyl)-2,3-dihydrobenzo[b][1,4]dioxin-6-carboxamide] stands 720 nM; under `Cc1ccc(F)c([C@@H](C)[C@H](NS(=O)(=O)c2cc([N+](=O)[O-])c(Cl)cc2C(N)=O)c2n[nH]c(=O)o2)c1C` [Example 262, 5-chloro-2-(N-((1S,2R)-2-(6-fluoro-2,3-dimethylphenyl)-1-(5-oxo-4,5-dihydro-1,3,4-oxadiazol-2-yl)propyl)sulfamoyl)-4-nitrobenzamide], 170 nM; under `Cc1c(Br)ccc(F)c1[C@@H](C)[C@H](NS(=O)(=O)c1ncc(Cl)cc1C(N)=O)c1n[nH]c(=O)o1` [Example 264, 2-(N-((1S,2R)-2-(3-bromo-6-fluoro-2-methylphenyl)-1-(5-oxo-4,5-dihydro-1,3,4-oxadiazol-2-yl)propyl)sulfamoyl)-5-chloronicotinamide], 760 nM.

As to `Cc1ccc(F)c([C@@H](C)[C@H](NS(=O)(=O)c2ccc(Cl)c3c2OCC(=O)N3CCO)c2n[nH]c(=O)o2)c1C` [Example 273, 5-chloro-N-((1S,2R)-2-(6-fluoro-2,3-dimethylphenyl)-1-(5-oxo-4,5-dihydro-1,3,4-oxadiazol-2-yl)propyl)-4-(2-hydroxyethyl)-3-oxo-3,4-dihydro-2H-benzo[b][1,4]oxazine-8-sulfonamide], the IC50 amounted to 810 nM. In the case of `Cc1ccc(F)c([C@@H](C)[C@H](NS(=O)(=O)c2ccc(Cl)c3c2OCCN3)c2n[nH]c(=O)o2)c1C` [Example 275, 5-chloro-N-((1S,2R)-2-(6-fluoro-2,3-dimethylphenyl)-1-(5-oxo-4,5-dihydro-1,3,4-oxadiazol-2-yl)propyl)-3,4-dihydro-2H-benzo[b][1,4]oxazine-8-sulfonamide] it was 370 nM. As for `Cc1ccc(F)c([C@@H](C)[C@H](NS(=O)(=O)c2ccc(Cl)c3c2OCCC3N)c2n[nH]c(=O)o2)c1C` (stereo partly drawn) [Example 278, 4-amino-5-chloro-N-((1S,2R)-2-(6-fluoro-2,3-dimethylphenyl)-1-(5-oxo-4,5-dihydro-1,3,4-oxadiazol-2-yl)propyl)chroman-8-sulfonamide], the IC50 was 590 nM. For `Cc1ccc(F)c([C@@H](C)[C@H](NS(=O)(=O)c2ccc(Cl)c3c2OCCN3C)c2n[nH]c(=O)o2)c1C` [Example 288, 5-chloro-N-((1S,2R)-2-(6-fluoro-2,3-dimethylphenyl)-1-(5-oxo-4,5-dihydro-1,3,4-oxadiazol-2-yl)propyl)-4-methyl-3,4-dihydro-2H-benzo[b][1,4]oxazine-8-sulfonamide], the IC50 was determined as 150 nM. In the case of `Cc1c(Cl)ccc(F)c1[C@@H](C)[C@H](NS(=O)(=O)c1ccc(Cl)c2c1OCCN2C)c1n[nH]c(=O)o1` [Example 289, 5-chloro-N-((1S,2R)-2-(3-chloro-6-fluoro-2-methylphenyl)-1-(5-oxo-4,5-dihydro-1,3,4-oxadiazol-2-yl)propyl)-4-methyl-3,4-dihydro-2H-benzo[b][1,4]oxazine-8-sulfonamide] it was 600 nM; in that of `COc1c(S(=O)(=O)N[C@H](c2n[nH]c(=O)o2)[C@H](C)c2c(F)ccc(C)c2C)ccc(Cl)c1C(C)=O` [Example 294, 3-acetyl-4-chloro-N-((1S,2R)-2-(6-fluoro-2,3-dimethylphenyl)-1-(5-oxo-4,5-dihydro-1,3,4-oxadiazol-2-yl)propyl)-2-methoxybenzenesulfonamide], 390 nM. Under `COc1cc(Cl)ccc1S(=O)(=O)N[C@H](c1n[nH]c(=O)o1)[C@H](C)c1c(F)ccc(-c2cn[nH]c2)c1C` [Example 303, 4-chloro-N-((1S,2R)-2-(6-fluoro-2-methyl-3-(1H-pyrazol-4-yl)phenyl)-1-(5-oxo-4,5-dihydro-1,3,4-oxadiazol-2-yl)propyl)-2-methoxybenzenesulfonamide] stands 990 nM. In the case of `COc1cc(Cl)ccc1S(=O)(=O)N[C@H](c1n[nH]c(=O)o1)[C@H](C)c1c(F)ccc(-c2cnn(C(F)F)c2)c1C` [Example 304, 4-chloro-N-((1S,2R)-2-(3-(1-(difluoromethyl)-1H-pyrazol-4-yl)-6-fluoro-2-methylphenyl)-1-(5-oxo-4,5-dihydro-1,3,4-oxadiazol-2-yl)propyl)-2-methoxybenzenesulfonamide] it was 940 nM.

As for `COc1cc(Cl)ccc1S(=O)(=O)N[C@H](c1n[nH]c(=O)o1)[C@H](C)c1c(F)ccc(-c2c[nH]nc2C)c1C` [Example 308, 4-chloro-N-((1S,2R)-2-(6-fluoro-2-methyl-3-(3-methyl-1H-pyrazol-4-yl)phenyl)-1-(5-oxo-4,5-dihydro-1,3,4-oxadiazol-2-yl)propyl)-2-methoxybenzenesulfonamide], the IC50 was 870 nM. Under `CCn1cc(-c2ccc(F)c([C@@H](C)[C@H](NS(=O)(=O)c3ccc(Cl)cc3OC)c3n[nH]c(=O)o3)c2C)cn1` [Example 310, 4-chloro-N-((1S,2R)-2-(3-(1-ethyl-1H-pyrazol-4-yl)-6-fluoro-2-methylphenyl)-1-(5-oxo-4,5-dihydro-1,3,4-oxadiazol-2-yl)propyl)-2-methoxybenzenesulfonamide] stands 350 nM; under `COc1cc(Cl)ccc1S(=O)(=O)N[C@H](c1n[nH]c(=O)o1)[C@H](C)c1c(F)ccc(-c2cnn(C3CC3)c2)c1C` [Example 311, 4-chloro-N-((1S,2R)-2-(3-(1-cyclopropyl-1H-pyrazol-4-yl)-6-fluoro-2-methylphenyl)-1-(5-oxo-4,5-dihydro-1,3,4-oxadiazol-2-yl)propyl)-2-methoxybenzenesulfonamide], 520 nM. Under `COc1cc(Cl)ccc1S(=O)(=O)N[C@H](c1n[nH]c(=O)o1)[C@H](C)c1c(F)ccc(-c2cnn(C3CCC3)c2)c1C` [Example 312, 4-chloro-N-((1S,2R)-2-(3-(1-cyclobutyl-1H-pyrazol-4-yl)-6-fluoro-2-methylphenyl)-1-(5-oxo-4,5-dihydro-1,3,4-oxadiazol-2-yl)propyl)-2-methoxybenzenesulfonamide] stands 870 nM; under `COc1cc(Cl)ccc1S(=O)(=O)N[C@H](c1n[nH]c(=O)o1)[C@H](C)c1c(F)ccc(-c2ccc(N3CCOCC3)nc2)c1C` [Example 315, 4-chloro-N-((1S,2R)-2-(6-fluoro-2-methyl-3-(6-morpholinopyridin-3-yl)phenyl)-1-(5-oxo-4,5-dihydro-1,3,4-oxadiazol-2-yl)propyl)-2-methoxybenzenesulfonamide], 930 nM. Under `Cc1c(Br)ccc(F)c1[C@@H](C)[C@H](NS(=O)(=O)c1ccc(Cl)c2c1OCCC2(C)N)c1n[nH]c(=O)o1` (stereo partly drawn) [Example 329, 4-amino-N-((1S,2R)-2-(3-bromo-6-fluoro-2-methylphenyl)-1-(5-oxo-4,5-dihydro-1,3,4-oxadiazol-2-yl)propyl)-5-chloro-4-methyl-chroman-8-sulfonamide] stands 240 nM; under `Cc1ccc(F)c([C@@H](C)[C@@H](c2n[nH]c(=O)o2)N(C)S(=O)(=O)c2ccc(Cl)cc2C(N)=O)c1C` [Example 337, 5-chloro-2-(N-((1S,2R)-2-(6-fluoro-2,3-dimethylphenyl)-1-(5-oxo-4,5-dihydro-1,3,4 oxadiazol-2-yl)propyl)-N-methylsulfamoyl)benzamide], 300 nM.

As a reminder, the IC50 is the concentration needed to halve the response being measured.
